# Data from ChEMBL document CHEMBL2380240, “Discovery, synthesis, selectivity modulation and DMPK characterization of 5-azaspiro[2.4]heptanes as potent orexin receptor antagonists” (Bioorg Med Chem Lett, 2013).
# How the values were obtained:
# Cytochrome P450 3A4 [1] = molecular target: T1, Cytochrome P450 3A4 (Homo sapiens, UniProt P08684); experiment: Time dependent inhibition of human recombinant CYP3A4 using BFC as substrate incubated for 30 mins prior to substrate addition; format: ADME; details: recombinant enzyme, 0.5 h
# [2] = Ratio of drug uptake from rat brain to plasma at 1 mg/kg, iv after 1 hr; format: ADME, organism-based; parameters: dose 1 mg/kg, route intravenous; details: read-out: BPR
# CYP2D6 [3] = molecular target: T2, CYP2D6 (Homo sapiens, UniProt P10635); experiment: Inhibition of human recombinant CYP2D6 at 3 uM by fluorimetric assay; format: ADME
# [4] = molecular target: T3, Orexin receptor type 2 (Homo sapiens) (UniProt O43614); experiment: Antagonist activity at human recombinant OX2 receptor expressed in HEK293 cells assessed as OXB-stimulated intracellular calcium mobilization by FLIPR assay; format: functional, cell-based
# T3 sequence (whole entry): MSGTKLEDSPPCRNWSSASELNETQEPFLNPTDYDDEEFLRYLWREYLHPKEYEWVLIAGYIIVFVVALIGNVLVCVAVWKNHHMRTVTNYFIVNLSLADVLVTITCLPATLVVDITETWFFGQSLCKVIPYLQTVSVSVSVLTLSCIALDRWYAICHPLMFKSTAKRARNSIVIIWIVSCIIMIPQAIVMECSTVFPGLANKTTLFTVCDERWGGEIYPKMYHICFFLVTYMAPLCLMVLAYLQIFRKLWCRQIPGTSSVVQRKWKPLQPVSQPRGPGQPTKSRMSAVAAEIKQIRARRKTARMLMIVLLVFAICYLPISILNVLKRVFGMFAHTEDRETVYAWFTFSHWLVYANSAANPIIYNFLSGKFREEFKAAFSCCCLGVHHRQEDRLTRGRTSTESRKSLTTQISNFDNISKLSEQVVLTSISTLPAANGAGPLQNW
# CYP2C9 [5] = molecular target: T4, CYP2C9 (Homo sapiens, UniProt P11712); experiment: Inhibition of human recombinant CYP2C9 at 3 uM by fluorimetric assay; format: ADME
# [6] = molecular target: T5, Orexin/Hypocretin receptor type 1 (Homo sapiens) (UniProt O43613); experiment: Antagonist activity at human recombinant OX1 receptor expressed in CHO cells assessed as OXA-stimulated intracellular calcium mobilization by FLIPR assay; format: functional, cell-based
# T5 sequence (whole entry): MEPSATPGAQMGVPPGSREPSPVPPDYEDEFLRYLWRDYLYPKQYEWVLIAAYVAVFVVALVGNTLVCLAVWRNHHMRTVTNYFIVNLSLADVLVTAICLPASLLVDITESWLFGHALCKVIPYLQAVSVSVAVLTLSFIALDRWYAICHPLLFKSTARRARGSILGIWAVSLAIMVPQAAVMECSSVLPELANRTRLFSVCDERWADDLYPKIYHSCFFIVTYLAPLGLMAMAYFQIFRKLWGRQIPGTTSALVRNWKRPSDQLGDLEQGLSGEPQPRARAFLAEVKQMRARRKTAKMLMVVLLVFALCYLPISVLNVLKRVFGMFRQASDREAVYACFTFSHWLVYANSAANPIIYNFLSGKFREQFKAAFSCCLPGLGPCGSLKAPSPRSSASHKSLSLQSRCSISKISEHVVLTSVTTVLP
# [7] = Oral bioavailability in rat at 1 mg/kg; format: ADME, organism-based; details: in vivo
# CYP3A4 [8] = molecular target: T6, CYP3A4 (Homo sapiens, UniProt P08684); experiment: Inhibition of human recombinant CYP3A4 using DBF as substrate at 3 uM by fluorimetric assay; format: ADME; details: recombinant CYP3A4, probe DBF
# CYP3A4 [9] = molecular target: T6, CYP3A4; experiment: Inhibition of human recombinant CYP3A4 using BFC as substrate at 3 uM by fluorimetric assay; format: ADME; details: recombinant CYP3A4, probe BFC
# Cytochrome P450 3A4 [10] = molecular target: T1, Cytochrome P450 3A4; experiment: Inhibition of human recombinant CYP3A4 using BFC as substrate by fluorimetric assay; format: ADME
# CYP2C19 [11] = molecular target: T7, CYP2C19 (Homo sapiens, UniProt P33261); experiment: Inhibition of human recombinant CYP2C19 at 3 uM by fluorimetric assay; format: ADME
# [12] = Plasma clearance in rat at 1 mg/kg, iv; format: ADME, organism-based; parameters: dose 1 mg/kg, route intravenous
# CYP1A2 [13] = molecular target: T8, CYP1A2 (Homo sapiens, UniProt P05177); experiment: Inhibition of human recombinant CYP1A2 at 3 uM by fluorimetric assay; format: ADME
# T8 sequence (P05177 whole entry): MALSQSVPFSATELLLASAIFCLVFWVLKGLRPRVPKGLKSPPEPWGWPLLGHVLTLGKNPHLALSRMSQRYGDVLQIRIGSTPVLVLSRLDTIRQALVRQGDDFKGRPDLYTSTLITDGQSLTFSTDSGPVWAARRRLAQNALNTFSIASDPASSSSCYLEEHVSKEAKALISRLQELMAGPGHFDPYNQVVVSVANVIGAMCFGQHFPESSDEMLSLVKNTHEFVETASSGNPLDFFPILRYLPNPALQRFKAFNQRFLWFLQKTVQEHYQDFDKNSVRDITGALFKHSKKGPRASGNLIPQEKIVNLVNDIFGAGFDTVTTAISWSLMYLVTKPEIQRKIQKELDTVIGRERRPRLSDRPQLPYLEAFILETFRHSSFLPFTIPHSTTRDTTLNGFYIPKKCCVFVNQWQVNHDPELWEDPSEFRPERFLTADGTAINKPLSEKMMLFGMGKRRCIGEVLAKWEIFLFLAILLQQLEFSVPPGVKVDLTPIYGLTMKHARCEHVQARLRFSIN
# [14] = Volume of distribution at steady state in rat; format: ADME, organism-based; details: in vivo, read-out: Vdss
# CYP2C19 [15] = molecular target: T7, CYP2C19; experiment: Inhibition of human recombinant CYP2C19 at 1 uM by fluorimetric assay; format: ADME
# CYP1A2 [16] = molecular target: T8, CYP1A2; experiment: Inhibition of human recombinant CYP1A2 at 1 uM by fluorimetric assay; format: ADME
# CYP2D6 [17] = molecular target: T2, CYP2D6; experiment: Inhibition of human recombinant CYP2D6 at 1 uM by fluorimetric assay; format: ADME
# CYP2C9 [18] = molecular target: T4, CYP2C9; experiment: Inhibition of human recombinant CYP2C9 at 1 uM by fluorimetric assay; format: ADME
# CYP3A4 [19] = molecular target: T6, CYP3A4; experiment: Inhibition of human recombinant CYP3A4 using BFC as substrate at 1 uM by fluorimetric assay; format: ADME; details: recombinant CYP3A4, probe BFC
# CYP3A4 [20] = molecular target: T6, CYP3A4; experiment: Inhibition of human recombinant CYP3A4 using DBF as substrate at 1 uM by fluorimetric assay; format: ADME; details: recombinant CYP3A4, probe DBF
# Homo sapiens = species on record: Homo sapiens; experiment: Selectivity ratio for human recombinant OX1 to human recombinant OX2
# T1 sequence (P08684 whole entry): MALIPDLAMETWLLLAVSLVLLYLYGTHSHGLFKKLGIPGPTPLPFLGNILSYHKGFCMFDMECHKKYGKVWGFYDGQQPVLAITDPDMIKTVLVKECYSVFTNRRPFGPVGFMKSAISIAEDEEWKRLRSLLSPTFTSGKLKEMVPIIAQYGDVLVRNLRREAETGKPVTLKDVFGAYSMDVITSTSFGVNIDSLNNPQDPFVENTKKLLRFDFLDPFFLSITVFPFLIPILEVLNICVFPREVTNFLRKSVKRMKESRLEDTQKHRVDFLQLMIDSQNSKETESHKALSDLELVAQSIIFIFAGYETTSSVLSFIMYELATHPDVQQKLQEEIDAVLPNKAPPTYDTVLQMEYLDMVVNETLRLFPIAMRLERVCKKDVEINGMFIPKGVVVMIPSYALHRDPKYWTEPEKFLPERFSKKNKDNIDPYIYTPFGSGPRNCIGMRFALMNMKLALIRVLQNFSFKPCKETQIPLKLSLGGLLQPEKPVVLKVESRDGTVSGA
# T6 sequence (P08684 whole entry): as above
# T4 sequence (P11712 whole entry): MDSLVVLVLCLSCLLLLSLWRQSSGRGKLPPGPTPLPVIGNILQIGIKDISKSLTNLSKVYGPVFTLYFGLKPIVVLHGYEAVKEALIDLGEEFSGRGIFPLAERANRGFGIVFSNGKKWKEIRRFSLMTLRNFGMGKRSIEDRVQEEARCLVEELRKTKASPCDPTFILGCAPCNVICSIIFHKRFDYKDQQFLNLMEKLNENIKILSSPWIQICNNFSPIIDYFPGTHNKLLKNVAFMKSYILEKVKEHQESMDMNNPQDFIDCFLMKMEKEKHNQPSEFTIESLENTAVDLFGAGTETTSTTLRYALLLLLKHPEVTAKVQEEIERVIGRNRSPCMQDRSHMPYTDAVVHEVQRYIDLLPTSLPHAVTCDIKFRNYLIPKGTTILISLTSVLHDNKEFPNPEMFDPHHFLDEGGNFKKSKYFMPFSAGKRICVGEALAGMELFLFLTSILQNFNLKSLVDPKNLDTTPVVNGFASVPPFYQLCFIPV
# T7 sequence (P33261 whole entry): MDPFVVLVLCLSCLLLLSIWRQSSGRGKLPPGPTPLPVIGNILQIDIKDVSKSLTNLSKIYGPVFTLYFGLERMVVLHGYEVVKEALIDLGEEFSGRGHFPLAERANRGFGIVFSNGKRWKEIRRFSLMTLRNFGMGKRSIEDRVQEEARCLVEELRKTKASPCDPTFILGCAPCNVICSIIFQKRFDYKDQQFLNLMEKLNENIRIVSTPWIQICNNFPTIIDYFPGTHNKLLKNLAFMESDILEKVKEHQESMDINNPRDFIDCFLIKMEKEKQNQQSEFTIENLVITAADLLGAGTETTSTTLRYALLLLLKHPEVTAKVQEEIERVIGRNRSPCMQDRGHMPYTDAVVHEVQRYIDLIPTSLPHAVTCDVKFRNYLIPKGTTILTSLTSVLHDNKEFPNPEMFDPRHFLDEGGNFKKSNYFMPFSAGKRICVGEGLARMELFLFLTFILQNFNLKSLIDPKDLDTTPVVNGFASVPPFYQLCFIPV
# T2 sequence (P10635 whole entry): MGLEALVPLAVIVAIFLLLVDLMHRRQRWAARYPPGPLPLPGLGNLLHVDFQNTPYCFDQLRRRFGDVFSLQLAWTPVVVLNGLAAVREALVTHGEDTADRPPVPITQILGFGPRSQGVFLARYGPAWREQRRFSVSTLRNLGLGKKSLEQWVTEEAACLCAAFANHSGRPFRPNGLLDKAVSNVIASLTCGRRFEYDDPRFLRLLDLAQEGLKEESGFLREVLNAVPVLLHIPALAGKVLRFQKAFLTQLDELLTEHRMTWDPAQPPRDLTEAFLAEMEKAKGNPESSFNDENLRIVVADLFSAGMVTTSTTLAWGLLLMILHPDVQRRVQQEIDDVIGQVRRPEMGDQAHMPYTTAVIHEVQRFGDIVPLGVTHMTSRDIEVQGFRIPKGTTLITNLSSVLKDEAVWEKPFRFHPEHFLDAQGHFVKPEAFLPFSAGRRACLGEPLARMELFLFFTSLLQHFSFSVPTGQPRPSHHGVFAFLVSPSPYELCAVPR
inhibition (INH) (Cytochrome P450 3A4 [1]),Kp at 1 h [2],inhibition at 3 µM (CYP2D6 [3]),pKb [4],inhibition at 3 µM (CYP2C9 [5]),pKb [6],bioavailability [7],inhibition at 3 µM (CYP3A4 [8]),inhibition at 3 µM (CYP3A4 [9]),IC50 (Cytochrome P450 3A4 [10]),inhibition at 3 µM (CYP2C19 [11]),clearance [12],inhibition at 3 µM (CYP1A2 [13]),Vd [14],inhibition at 1 µM (CYP2C19 [15]),inhibition at 1 µM (CYP1A2 [16]),inhibition at 1 µM (CYP2D6 [17]),inhibition at 1 µM (CYP2C9 [18]),inhibition at 1 µM (CYP3A4 [19]),inhibition at 1 µM (CYP3A4 [20]),SMILES,other results
Active,0.5,< 28%,7.5,< 28%,8.4,33%,< 28%,< 28%,> 100 µM,< 28%,47.5 mL/min/kg,< 28%,2 L/kg,,,,,,,Cc1ccc(-c2ncccn2)c(C(=O)N2CC3(CC3)C[C@H]2CNc2ccc(C(F)(F)F)cn2)n1,
Not Active,0.4,< 20%,8,< 20%,8.6,11%,< 20%,< 20%,64 µM,< 20%,61.3 mL/min/kg,< 20%,4.4 L/kg,,,,,,,Cc1ccc(-c2ccccc2)c(C(=O)N2CC3(CC3)C[C@H]2CNc2ccc(C(F)(F)F)cn2)n1,
Active,0.6,< 20%,7.7,< 20%,8.4,20%,< 20%,< 20%,> 100 µM,< 20%,55.2 mL/min/kg,< 20%,3 L/kg,< 20%,< 20%,< 20%,< 20%,< 20%,< 20%,Cc1nc(C(=O)N2CC3(CC3)C[C@H]2CNc2ccc(C(F)(F)F)cn2)c(-c2ccccc2)s1,

# The next lines start with the compound.
SMILES,inhibition (INH) (Cytochrome P450 3A4 [1]),Kp at 1 h [2],inhibition at 3 µM (CYP2D6 [3]),pKb [4],inhibition at 3 µM (CYP2C9 [5]),pKb [6],bioavailability [7],inhibition at 3 µM (CYP3A4 [8]),inhibition at 3 µM (CYP3A4 [9]),IC50 (Cytochrome P450 3A4 [10]),inhibition at 3 µM (CYP2C19 [11]),clearance [12],inhibition at 3 µM (CYP1A2 [13]),Vd [14],inhibition at 1 µM (CYP2C19 [15]),inhibition at 1 µM (CYP1A2 [16]),inhibition at 1 µM (CYP2D6 [17]),inhibition at 1 µM (CYP2C9 [18]),inhibition at 1 µM (CYP3A4 [19]),inhibition at 1 µM (CYP3A4 [20]),other results
Cc1ccc(-c2ncccn2)c(C(=O)N2CC3(CC3)C[C@H]2CNc2ccc(Cl)cn2)c1,,0.03,,< 5,,8.2,40%,,,,,11 mL/min/kg,,6.21 L/kg,< 53%,< 53%,< 53%,< 53%,< 53%,< 53%,
Cc1ccc(-c2ncccn2)c(C(=O)N2CC3(CC3)C[C@H]2CNc2cc(C(F)(F)F)ccn2)n1,,,,8.1,,6,,,,,,,,,< 39%,< 39%,< 39%,< 39%,< 39%,< 39%,Selectivity ratio (Homo sapiens): > 100
Cc1cc(C)nc(NC[C@@H]2CC3(CC3)CN2C(=O)c2nc(C)sc2-c2ccccc2)n1,Active,0.1,,8.6,,7.5,,,,7.9 µM,,41.4 mL/min/kg,,0.7 L/kg,< 16%,< 16%,< 16%,< 16%,< 16%,< 16%,
